This note sets out measurements from patent publication US8580794B2 (AbbVie Inc., priority 2009, dated 2013).

The structures appear in SMILES notation.

Broadly, the Ki is the equilibrium dissociation constant of an inhibitor or competing ligand from its target.

This experiment concerns the target GST-Bc1-2 (Homo sapiens, UniProt P10415). In words: Time Resolved-Fluorescence Resonance Energy Transfer (TR-FRET) Bcl-2 binding assay with F-Bak peptide probe. To be noted: GST-Bcl-2 1 nM, F-Bak probe 100 nM, Tb-anti-GST 1 nM; '<' = below limit of detection; read-out: TR-FRET Bcl-2 Binding Ki.

Sequence of GST-Bc1-2 (P10415 whole entry): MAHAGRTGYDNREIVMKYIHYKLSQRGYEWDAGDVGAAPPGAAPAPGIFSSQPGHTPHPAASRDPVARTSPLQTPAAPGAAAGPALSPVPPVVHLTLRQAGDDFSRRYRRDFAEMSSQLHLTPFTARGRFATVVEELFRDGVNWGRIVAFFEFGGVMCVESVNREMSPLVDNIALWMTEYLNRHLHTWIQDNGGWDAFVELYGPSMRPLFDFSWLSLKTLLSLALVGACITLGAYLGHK

As to `CC1(C)CCC(c2ccc(Cl)cc2)=C(CN2CCN(c3ccc(C(=O)NS(=O)(=O)c4ccc(OCC5(F)CCOCC5)c([N+](=O)[O-])c4)c(Oc4cnc5[nH]ccc5c4)c3)CC2)C1` [Example 119, 4-(4-{[2-(4-chlorophenyl)-5,5-dimethylcyclohex-1-en-1-yl]methyl}piperazin-1-yl)-N-({4-[(4-fluorotetrahydro-2H-pyran-4-yl)methoxy]-3-nitrophenyl}sulfonyl)-2-(1H-pyrrolo[2,3-b]pyridin-5-yloxy)benzamide], the Ki was < 10 pM.
Under `CO[C@H]1CC[C@@H](COc2ccc(S(=O)(=O)NC(=O)c3ccc(N4CCN(CC5=C(c6ccc(Cl)cc6)CC(C)(C)CC5)CC4)cc3Oc3cnc4[nH]ccc4c3)cc2[N+](=O)[O-])CC1` [Example 121, 2-(1H-pyrrolo[2,3-b]pyridin-5-yloxy)-4-(4-((2-(4-chlorophenyl)-4,4-dimethylcyclohex-1-enyl)methyl)piperazin-1-yl)-N-(4-((cis-4-methoxycyclohexyl)methoxy)-3-nitrophenylsulfonyl)benzamide] stands < 10 pM; under `CC1(C)CCC(CN2CCN(c3ccc(C(=O)NS(=O)(=O)c4ccc(N[C@H]5CC[C@@H](NC6CC6)CC5)c([N+](=O)[O-])c4)c(Oc4cnc5[nH]ccc5c4)c3)CC2)=C(c2ccc(Cl)cc2)C1` [Example 122, Cis-4-(4-{[2-(4-chlorophenyl)-4,4-dimethylcyclohex-1-en-1-yl]methyl}piperazin-1-yl)-N-[(4-{[4-(cyclopropylamino)cyclohexyl]amino}-3-nitrophenyl)sulfonyl]-2-(1H-pyrrolo[2,3-b]pyridin-5-yloxy)benzamide], < 10 pM.
As for `CC1(C)CCC(CN2CCN(c3ccc(C(=O)NS(=O)(=O)c4ccc(N[C@H]5CC[C@H](NC6CCOCC6)CC5)c([N+](=O)[O-])c4)c(Oc4cnc5[nH]ccc5c4)c3)CC2)=C(c2ccc(Cl)cc2)C1` [Example 123, Trans-4-(4-{[2-(4-chlorophenyl)-4,4-dimethylcyclohex-1-en-1-yl]methyl}piperazin-1-yl)-N-[(3-nitro-4-{[4-(tetrahydro-2H-pyran-4-ylamino)cyclohexyl]amino}phenyl)sulfonyl]-2-(1H-pyrrolo[2,3-b]pyridin-5-yloxy)benzamide], the figure is < 10 pM; as for `CC1(C)CCC(CN2CCN(c3ccc(C(=O)NS(=O)(=O)c4cnc(O[C@H]5CC[C@H](N6CCOCC6)CC5)c(Br)c4)c(Oc4cnc5[nH]ccc5c4)c3)CC2)=C(c2ccc(Cl)cc2)C1` [Example 124, Trans-N-({5-bromo-6-[(4-morpholin-4-ylcyclohexyl)oxy]pyridin-3-yl}sulfonyl)-4-(4-{[2-(4-chlorophenyl)-4,4-dimethylcyclohex-1-en-1-yl]methyl}piperazin-1-yl)-2-(1H-pyrrolo[2,3-b]pyridin-5-yloxy)benzamide], < 10 pM.
For `CO[C@H]1CC[C@H](COc2ccc(S(=O)(=O)NC(=O)c3ccc(N4CCN(CC5=C(c6ccc(Cl)cc6)CC(C)(C)CC5)CC4)cc3Oc3cnc4[nH]ccc4c3)cc2[N+](=O)[O-])CC1` [Example 125, Trans-4-(4-{[2-(4-chlorophenyl)-4,4-dimethylcyclohex-1-en-1-yl]methyl}piperazin-1-yl)-N-({4-[(4-methoxycyclohexyl)methoxy]-3-nitrophenyl}sulfonyl)-2-(1H-pyrrolo[2,3-b]pyridin-5-yloxy)benzamide], the Ki is < 10 pM.
As to `CC1(C)CCC(CN2CCN(c3ccc(C(=O)NS(=O)(=O)c4ccc(OCC5(F)CCN(C(=O)OC(C)(C)C)CC5)c([N+](=O)[O-])c4)c(Oc4cnc5[nH]ccc5c4)c3)CC2)=C(c2ccc(Cl)cc2)C1` [Example 126, tert-butyl 4-{[4-({[4-(4-{[2-(4-chlorophenyl)-4,4-dimethylcyclohex-1-en-1-yl]methyl}piperazin-1-yl)-2-(1H-pyrrolo[2,3-b]pyridin-5-yloxy)benzoyl]amino}sulfonyl)-2-nitrophenoxy]methyl}-4-fluoropiperidine-1-carboxylate], the Ki is < 10 pM.
As for `CC1(C)CCC(CN2CCN(c3ccc(C(=O)NS(=O)(=O)c4ccc(OCC5(F)CCNCC5)c([N+](=O)[O-])c4)c(Oc4cnc5[nH]ccc5c4)c3)CC2)=C(c2ccc(Cl)cc2)C1` [Example 127, 4-(4-{[2-(4-chlorophenyl)-4,4-dimethylcyclohex-1-en-1-yl]methyl}piperazin-1-yl)-N-({4-[(4-fluoropiperidin-4-yl)methoxy]-3-nitrophenyl}sulfonyl)-2-(1H-pyrrolo[2,3-b]pyridin-5-yloxy)benzamide], the figure is < 10 pM; as for `CC1(C)CCC(CN2CCN(c3ccc(C(=O)NS(=O)(=O)c4ccc(N[C@H]5CC[C@H](N6CCN(C7CCOCC7)CC6)CC5)c([N+](=O)[O-])c4)c(Oc4cnc5[nH]ccc5c4)c3)CC2)=C(c2ccc(Cl)cc2)C1` [Example 128, Trans-4-(4-{[2-(4-chlorophenyl)-4,4-dimethylcyclohex-1-en-1-yl]methyl}piperazin-1-yl)-N-[(3-nitro-4-{[4-(4-tetrahydro-2H-pyran-4-ylpiperazin-1-yl)cyclohexyl]amino}phenyl)sulfonyl]-2-(1H-pyrrolo[2,3-b]pyridin-5-yloxy)benzamide], < 10 pM; as for `CC1(C)CCC(CN2CCN(c3ccc(C(=O)NS(=O)(=O)c4ccc(OCC5CCN(C(CF)CF)CC5)c([N+](=O)[O-])c4)c(Oc4cnc5[nH]ccc5c4)c3)CC2)=C(c2ccc(Cl)cc2)C1` [Example 129, 4-(4-{[2-(4-chlorophenyl)-4,4-dimethylcyclohex-1-en-1-yl]methyl}piperazin-1-yl)-N-{[4-({1-[2-fluoro-1-(fluoromethyl)ethyl]piperidin-4-yl}methoxy)-3-nitrophenyl]sulfonyl}-2-(1H-pyrrolo[2,3-b]pyridin-5-yloxy)benzamide], 2 pM.
Under `CC1(C)CCC(CN2CCN(c3ccc(C(=O)NS(=O)(=O)c4ccc(N[C@@H]5CCN(C6CCOCC6)C5)c([N+](=O)[O-])c4)c(Oc4cnc5[nH]ccc5c4)c3)CC2)=C(c2ccc(Cl)cc2)C1` [Example 130, 4-(4-{[2-(4-chlorophenyl)-4,4-dimethylcyclohex-1-en-1-yl]methyl}piperazin-1-yl)-N-[(3-nitro-4-{[(3R)-1-tetrahydro-2H-pyran-4-ylpyrrolidin-3-yl]amino}phenyl)sulfonyl]-2-(1H-pyrrolo[2,3-b]pyridin-5-yloxy)benzamide] stands < 10 pM; under `CC1(C)CCC(CN2CCN(c3ccc(C(=O)NS(=O)(=O)c4ccc(N[C@@H]5CCN(C6CCOC(C)(C)C6)C5)c([N+](=O)[O-])c4)c(Oc4cnc5[nH]ccc5c4)c3)CC2)=C(c2ccc(Cl)cc2)C1` (stereo partly drawn) [Example 131, 4-(4-{[2-(4-chlorophenyl)-4,4-dimethylcyclohex-1-en-1-yl]methyl}piperazin-1-yl)-N-[(4-{[(3R)-1-(2,2-dimethyltetrahydro-2H-pyran-4-yl)pyrrolidin-3-yl]amino}-3-nitrophenyl)sulfonyl]-2-(1H-pyrrolo[2,3-b]pyridin-5-yloxy)benzamide], < 10 pM.
`CC1(C)CCC(CN2CCN(c3ccc(C(=O)NS(=O)(=O)c4ccc(N[C@H]5CCN(C6CCOCC6)C5)c([N+](=O)[O-])c4)c(Oc4cnc5[nH]ccc5c4)c3)CC2)=C(c2ccc(Cl)cc2)C1` [Example 132, 4-(4-{[2-(4-chlorophenyl)-4,4-dimethylcyclohex-1-en-1-yl]methyl}piperazin-1-yl)-N-[(3-nitro-4-{[(3S)-1-tetrahydro-2H-pyran-4-ylpyrrolidin-3-yl]amino}phenyl)sulfonyl]-2-(1H-pyrrolo[2,3-b]pyridin-5-yloxy)benzamide]: the Ki is < 10 pM.
Take `CC1(C)CCC(CN2CCN(c3ccc(C(=O)NS(=O)(=O)c4ccc(N[C@H]5CCN(C6CCOC(C)(C)C6)C5)c([N+](=O)[O-])c4)c(Oc4cnc5[nH]ccc5c4)c3)CC2)=C(c2ccc(Cl)cc2)C1` (stereo partly drawn) [Example 133, 4-(4-{[2-(4-chlorophenyl)-4,4-dimethylcyclohex-1-en-1-yl]methyl}piperazin-1-yl)-N-[(4-{[(3S)-1-(2,2-dimethyltetrahydro-2H-pyran-4-yl)pyrrolidin-3-yl]amino}-3-nitrophenyl)sulfonyl]-2-(1H-pyrrolo[2,3-b]pyridin-5-yloxy)benzamide]: the inhibition constant (Ki) is < 10 pM.
On to `CN1CCOC(CNc2ccc(S(=O)(=O)NC(=O)c3ccc(N4CCN(CC5=C(c6ccc(Cl)cc6)CC(C)(C)CC5)CC4)cc3Oc3cnc4[nH]ccc4c3)cc2[N+](=O)[O-])C1` (stereo not drawn) [Example 134, 4-(4-{[2-(4-chlorophenyl)-4,4-dimethylcyclohex-1-en-1-yl]methyl}piperazin-1-yl)-N-[(4-{[(4-methylmorpholin-2-yl)methyl]amino}-3-nitrophenyl)sulfonyl]-2-(1H-pyrrolo[2,3-b]pyridin-5-yloxy)benzamide], for which the Ki is < 10 pM.
In the case of `COCCN1CCOC(CNc2ccc(S(=O)(=O)NC(=O)c3ccc(N4CCN(CC5=C(c6ccc(Cl)cc6)CC(C)(C)CC5)CC4)cc3Oc3cnc4[nH]ccc4c3)cc2[N+](=O)[O-])C1` (stereo not drawn) [Example 135, 4-(4-{[2-(4-chlorophenyl)-4,4-dimethylcyclohex-1-en-1-yl]methyl}piperazin-1-yl)-N-{[4-({[4-(2-methoxyethyl)morpholin-2-yl]methyl}amino)-3-nitrophenyl]sulfonyl}-2-(1H-pyrrolo[2,3-b]pyridin-5-yloxy)benzamide], the Ki is < 10 pM.
Take `CC(=O)N1CCOC(CNc2ccc(S(=O)(=O)NC(=O)c3ccc(N4CCN(CC5=C(c6ccc(Cl)cc6)CC(C)(C)CC5)CC4)cc3Oc3cnc4[nH]ccc4c3)cc2[N+](=O)[O-])C1` (stereo not drawn) [Example 136, N-[(4-{[(4-acetylmorpholin-2-yl)methyl]amino}-3-nitrophenyl)sulfonyl]-4-(4-{[2-(4-chlorophenyl)-4,4-dimethylcyclohex-1-en-1-yl]methyl}piperazin-1-yl)-2-(1H-pyrrolo[2,3-b]pyridin-5-yloxy)benzamide]: the Ki was < 10 pM.
Under `CC1(C)CCC(CN2CCN(c3ccc(C(=O)NS(=O)(=O)c4ccc(NCC5(F)CCOCC5)c([N+](=O)[O-])c4)c(Oc4cnc5[nH]ccc5c4)c3)CC2)=C(c2ccc(Cl)cc2)C1` [Example 138, 4-(4-{[2-(4-chlorophenyl)-4,4-dimethylcyclohex-1-en-1-yl]methyl}piperazin-1-yl)-N-[(4-{[(4-fluorotetrahydro-2H-pyran-4-yl)methyl]amino}-3-nitrophenyl)sulfonyl]-2-(1H-pyrrolo[2,3-b]pyridin-5-yloxy)benzamide] stands < 10 pM.
